In series [1] the test system is metastatic erbB-2 positive breast cancer. The series can be described thus: phase 2 trial of neratinib as a single agent in subjects with metastatic erbB-2 positive breast cancer. As to conditions: for median progression-free survival (PFS) / overall response rate (ORR): independent radiology assessment, preliminary data. The format is in vivo, human. From the text: Neratinib as a single agent has been studied in a phase 2 trial in subjects with metastatic erbB-2 positive breast cancer.

The test system of series [2] is erbB-1- and/or erbB 2-expressing carcinoma cell lines. As to conditions: read-out: cellular IC50, preclinical data; cited from earlier work.
Where [3] appears, read: Arm A: subjects with prior trastuzumab treatment.
The mark [4] stands for this setting: Arm B: subjects without prior exposure to trastuzumab.

The IC50 is the concentration that inhibits the measured activity by half.

As to `CCOc1cc2ncc(C#N)c(Nc3ccc(OCc4ccccn4)c(Cl)c3)c2cc1NC(=O)/C=C/CN(C)C` [neratinib, (2E)-N-[4-[[3-chloro-4-[(pyridin-2-yl)methoxy]phenyl]amino]-3-cyano-7-ethoxyquinolin-6-yl]-4-(dimethylamino)but-2-enamide], in series [1] (setting [3]), the “median progression-free survival (PFS)” value was 23 weeks and the “overall response rate (ORR)” value is 26%. Besides, in series [1] (setting [4]), the “median progression-free survival (PFS)” value amounted to 40 weeks and the “overall response rate (ORR)” value was determined as 57%. For the same compound, in series [1] (generally well manageable with medication, treatment interruption, or dose modification), the main adverse event entry is recorded as “diarrhea”. The “other common adverse events” value in series [1] (human, in vivo) was “nausea, vomiting, fatigue, and anorexia”. Further, the 50% inhibitory concentration (IC50) in series [2] was below 100 nM.

Values taken from patent US9211291B2, “Treatment regimen utilizing neratinib for breast cancer” (WYETH LLC, priority 2009, dated 2015).
